Assay results as given in patent US5622962A, “5α-reductase inhibitors” (priority 1995, dated 1997).
Where “and” joins values, the source holds several entries; their conditions need not be identical. Equal entries are not always repeated.

Columns and labels:
[1] = target: T1, Type I 5α-Reductase from Human Scalp (Homo sapiens, UniProt P18405); experiment: Human Type I 5α-reductase assay (conversion of [3H]-testosterone to 5α-reduced metabolites); assay type: biochemical; settings: 50 nM [3H]-testosterone, pH 7.5, 25°, 180 min, compared to control reaction mixtures; for inhibition at 0.3 µM: pH 7.5, 0.3 μM, read-out: percent inhibition of Type I AR; for percent inhibition of Type I AR: 0.3 μM
T1 construct: Scalp punch biopsies from graft recipient sites were obtained from human hair transplant procedures; from tissue; host or cells: human scalp punch biopsies (hair transplant graft recipient sites), homogenate, 100,000×g pellet
T1 sequence (P18405 1-259): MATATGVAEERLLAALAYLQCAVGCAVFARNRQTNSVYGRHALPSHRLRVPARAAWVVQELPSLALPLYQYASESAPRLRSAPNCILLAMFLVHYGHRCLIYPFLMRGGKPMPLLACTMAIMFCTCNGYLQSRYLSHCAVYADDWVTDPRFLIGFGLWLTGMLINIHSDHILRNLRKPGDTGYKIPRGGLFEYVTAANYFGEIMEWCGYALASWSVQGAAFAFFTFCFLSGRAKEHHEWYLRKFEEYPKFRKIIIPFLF

[2] = target: T2, Type II 5α-Reductase from Human Prostate (Homo sapiens, UniProt P31213); experiment: Human Type II 5α-reductase assay (conversion of [3H]-testosterone to 5α-reduced metabolites); assay type: biochemical; settings: sodium acetate pH 5.5, 25°, 30 min, compared to control reaction mixtures; for inhibition at 0.3 µM: pH 5.5, 0.3 μM, read-out: percent inhibition of Type II AR; for percent inhibition of Type II AR: 0.3 μM
T2 construct: The same procedure as above was used for preparations using tissue from prostate surgery; from tissue; host or cells: human prostate tissue from surgery, homogenate, 100,000×g pellet
T2 sequence (P31213 1-254): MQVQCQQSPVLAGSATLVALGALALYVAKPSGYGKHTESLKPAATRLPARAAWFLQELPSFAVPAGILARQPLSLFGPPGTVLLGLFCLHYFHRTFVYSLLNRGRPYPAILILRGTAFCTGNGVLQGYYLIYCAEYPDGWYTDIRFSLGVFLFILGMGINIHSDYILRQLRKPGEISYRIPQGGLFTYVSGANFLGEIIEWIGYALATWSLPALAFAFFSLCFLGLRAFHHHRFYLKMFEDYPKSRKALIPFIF

Molecule	inhibition at 0.3 µM [1] [%]	inhibition at 0.3 µM [2] [%]	percent inhibition of Type I AR [1] [%]	percent inhibition of Type II AR [2]
C[C@]12CCC(=O)N[C@@H]1CCc1cc(Sc3ccccc3Cl)ccc12 [Example 7]	49	42	–	–
CN1C(=O)CC[C@]2(C)c3ccc(-c4ccc(F)c(C(F)(F)F)c4)cc3CC[C@@H]12 [Example 46, (+)-(4aR)-(10bR)-4-methyl-8-(4-fluoro-3-trifluoromethylphenyl)-10b-methyl-1,2,3,4,4a,5,6,10b-octahydrobenzo[f]-quinolin-3-one]	3	31	–	–
CN1C(=O)CC[C@]2(C)c3ccc(-c4ccccc4F)cc3CC[C@@H]12 [Example 38, (+)-(4aR)-(10bR)-4-methyl-8-(2-fluorophenyl)-10b-methyl-1,2,3,4,4a,5,6,10b-octahydrobenzo[f]quinolin-3-one]	84	56	–	38%
CN1C(=O)CC[C@]2(C)c3ccc(-c4ccc(F)c5ccccc45)cc3CC[C@@H]12 [Example 64, (+)-(4aR)-(10bR)-4-methyl-8-(1-[4-fluoro]naphthyl)-10b-methyl-1,2,3,4,4a,5,6,10b-octahydrobenzo[f]quinolin-3-one]	81	22	–	–
CN1C(=O)CC[C@]2(C)c3ccc(-c4cc(C(F)(F)F)cc(C(F)(F)F)c4)cc3CC[C@@H]12 [Example 87, (+)-(4aR)-(10bR)-4-methyl-8-(3,5-his [trifluoromethyl]phenyl)-10b-methyl-1,2,3,4,4a,5,6,10b-octahydrobenzo[f]quinolin-3-one]	83	28	–	–
CN1C(=O)CC[C@]2(C)c3ccc(-c4ccc5ccccc5c4)cc3CC[C@@H]12 [Example 71, (+)-(4aR)-(10bR)-4-methyl-8-(2-naphthyl)-10b-methyl-1,2,3,4,4a,5,6,10b-octahydrobenzo[f]quinolin-3-one]	80	47	–	–
CN1C(=O)CC[C@]2(C)c3ccc(C(=O)NC(c4ccccc4)c4ccccc4)cc3CC[C@@H]12 [Example 148, (4aR)-(10bR)-4,10b-dimethyl-8-diphenylmethylcarboxamido-1,2,3,4,4a,5,6,10b-octahydrobenzo[f]quinolin-3-one]	2	12	–	–
CN1C(=O)CC[C@]2(C)c3ccc(-c4ccc(-c5ccccc5)cc4)cc3CC[C@@H]12 [Example 84, (+)-(4aR)-(10bR)-4-methyl-8-(4-biphenyl)-10b-methyl-1,2,3,4,4a,5,6,10b-octahydrobenzo[f]quinolin-3-one]	88	23	–	–
CN1C(=O)CC[C@]2(C)c3ccc(CSc4ccccc4)cc3CC[C@@H]12 [Example 137, (4aR)-(10bR)-8-phenylthiomethyl-4,10b-dimethyl-1,2,3,4,4a,5,6,10b-octahydrobenzo[f]quinolin-3-one]	90	37	–	–
CN1C(=O)CC[C@]2(C)c3ccc(CSc4nc5ccccc5s4)cc3CC[C@@H]12 [Example 138, (4aR)-(10bR)-8-(2-benzothiazole)thiomethyl-4,10b-dimethyl-1,2,3,4,4a,5,6,10b-octahydrobenzo[f]quinolin-3-one]	88	26	–	–
CN1C(=O)CC[C@]2(C)c3ccc(-c4ccc(NC(=O)C(C)(C)C)cc4)cc3CC[C@@H]12 [Example 37, (+)-(4aR)-(10bR)-4-methyl-8-(4-t-butylcarbonylaminophenyl)-10b-methyl-1,2,3,4,4a,5,6,10b-octahydrobenzo[f]quinolin-3-one]	72	58	–	–
CN1C(=O)CC[C@]2(C)c3ccc(-c4ccc(O)c(Cl)c4)cc3CC[C@@H]12 [Example 25, (+)-(4aR)-(10bR)-4-methyl-8-(3-chloro-4-hydroxyphenyl)-10b-methyl-1,2,3,4,4a,5,6,10b-octahydrobenzo[f]quinolin-3-one]	83	31	–	–
CN1C(=O)CC[C@]2(C)c3ccc(Sc4cncc5ccccc45)cc3CC[C@@H]12 [Example 114, (4aR)-(10bR)-4,10b-dimethyl-8-(4-isoquinolinylthio)-1,2,3,4,4a,5,6,10b-octahydrobenzo[f]quinolin-3-one]	55	47	–	–
CN1C(=O)CC[C@]2(C)c3ccc(Sc4nccs4)cc3CC[C@@H]12 [Example 149, (+)-(4aR)-(10bR)-4-methyl-8-(2-thiazoylthio)-10b-methyl-1,2,3,4,4a,5,6,10b-octahydrobenzo[f]quinolin-3-one]	58	33	–	–

Next, values leading:

inhibition at 0.3 µM [1] [%]	inhibition at 0.3 µM [2] [%]	percent inhibition of Type I AR [1] [%]	percent inhibition of Type II AR [2]	Molecule
88	90	–	–	Cc1ccc(C)c2sc(Sc3ccc4c(c3)CC[C@H]3N(C)C(=O)CC[C@]43C)nc12 [Example 185, (+)-(4aR)-(10bR)-4-methyl-8-(4,7-dimethyl-2-benzothiazolylthio)-10b-methyl-1,2,3,4,4a,5,6,10b-octahydrobenzo[f]-quinolin-3-one]
–	–	22	40%	(+)-(4aR)-(10bR)-8-(3-isoquinolinyl)-10b-methyl-3,4,4a,5,6,10b-hexahydrobenzo[f]quinolin-3-one [Example 142]
85	86	87	85% and 79%	CN1C(=O)CC[C@]2(C)c3ccc(Sc4nc5c(Cl)cccc5s4)cc3CC[C@@H]12 [Example 164, (+)-(4aR)-(10bR)-4-methyl-8-(4-chloro-2-benzothiazolylthio)-10b-methyl-1,2,3,4,4a,5,6,10b-octahydrobenzo[f]quinolin-3-one]
57	44	–	–	CN1C(=O)CC[C@]2(C)c3ccc(Oc4ccc5ccccc5n4)cc3CC[C@@H]12 [Example 266, (+)-(4aR)-(10bR)-4-methyl-8-(2-quinolinyloxy)-10b-methyl-1,2,3,4,4a,5,6,10b-octahydrobenzo[f]quinolin-3-one]
86	11	–	–	CN1C(=O)CC[C@]2(C)c3ccc(-c4cccc(CNC(c5ccccc5)c5ccccc5)c4)cc3CC[C@@H]12 [Example 292, (+)-(4aR)-(10bR)-4-methyl-8-(3-diphenylmethylaminomethylphenyl)-10b-methyl-1,2,3,4,4a,5,6,10b-octahydrobenzo[f]quinolin-3-one]
84	40	–	–	CN1C(=O)CC[C@]2(C)c3ccc(-c4nc5c(ccc6ccccc65)s4)cc3CC[C@@H]12 [Example 260, (+)-(4aR)-(10bR)-4-methyl-8-(2-naphtho<1,2-d>thiazolyl)-10b-methyl-1,2,3,4,4a,5,6,10b-octahydrobenzo[f]quinolin-3-one]
75	61	–	–	CN1C(=O)CC[C@]2(C)c3ccc(Sc4ccc5c([N+](=O)[O-])cccc5n4)cc3CC[C@@H]12 [Example 169, (+)-(4aR)-(10bR)-4-methyl-8-(5-nitro-2-quinolinylthio)-10b-methyl-1,2,3,4,4a,5,6,10b-octahydrobenzo[f]quinolin-3-one]
58	60	–	–	CN1C(=O)CC[C@]2(C)c3ccc(Sc4ccc(C(F)(F)F)cn4)cc3CC[C@@H]12 [Example 155, (+)-(4aR)-(10bR)-4-methyl-8-(2-[5-trifluoromethyl]pyridylthio)-10b-methyl-1,2,3,4,4a,5,6,10b-octahydrobenzo[f]-quinolin-3-one]
88	78	–	–	CN1C(=O)CC[C@]2(C)c3ccc(Sc4nc5c(OC(F)(F)F)cccc5s4)cc3CC[C@@H]12 [Example 188, (+)-(4aR)-(10bR)-4-methyl-8-(4-trifluoromethoxy-2-benzothiazolylthio)-10b-methyl-1,2,3,4,4a,5,6,10b-octahydrobenzo[f]-quinolin-3-one]
45	16	–	–	CN1C(=O)CC[C@]2(C)c3ccc(-c4ccc5c(c4)CCC5=O)cc3CC[C@@H]12 [Example 207, (+)-(4aR)-(10bR)-4-methyl-8-(1-oxo-5-indanyl)-10b-methyl-1,2,3,4,4a,5,6,10b-octahydrobenzo[f]quinolin-3-one]
23	24	–	–	C[C@]12CCC(=O)N[C@@H]1CCc1cc(CSc3ccccc3)ccc12 [Example 289, (4aR)-(10bR)-8-phenylthiomethyl-10b-methyl-1,2,3,4,4a,5,6,10b-octahydrobenzo[f]quinolin-3-one]
69	24	–	–	CN1C(=O)CC[C@]2(C)c3ccc(-c4ccc5ncsc5c4)cc3CC[C@@H]12 [Example 249, (+)-(4aR)-(10bR)-4-methyl-8-(6-benzothiazolyl)-10b-methyl-1,2,3,4,4a,5,6,10b-octahydrobenzo[f]quinolin-3-one]
